Reference: ChEMBL document CHEMBL6120946, “From Hit to Lead: Discovery of First-In-Class Furanone Glycoside D228 Derived from Chimonanthus salicifolius for the Treatment of Inflammatory Bowel Disease” (J Med Chem, 2024)
Active and inactive are the calls of the source. The rule behind the calls is not given here.

Key:
[1] = system: Mus musculus; assay: Antiinflammatory activity in DSS-induced male C57BL/6 mouse model of inflammatory bowel disease assessed as recovery in colon length at 40 mg/kg/day, po measured after 7 days relative to control; type: functional; settings: time 7 day
[2] = Cytotoxicity against mouse Splenocyte by MTT assay; type: toxicity, cell-based; settings: splenocytes
[3] = system: Mus musculus; assay: Antiinflammatory activity in DSS-induced male C57BL/6 mouse model of inflammatory bowel disease assessed as recovery from body weight loss at 40 mg/kg/day, po measured after 7 days relative to control; type: functional; settings: time 7 day
[4] = system: Mus musculus; assay: Antiinflammatory activity in DSS-induced male C57BL/6 mouse model of inflammatory bowel disease assessed as recovery from body weight loss at 40 mg/kg/day, po measured after 7 days; type: functional, organism-based; settings: time 7.0 day
[5] = system: B-cell line; assay: Immunosuppressive activity in mouse B-lymphocyte assessed as reduction in LPS-induced cell proliferation incubated for 48 hrs; type: functional, cell-based
[6] = Immunosuppressive activity in mouse T-lymphocyte assessed as reduction in concanavalin A-induced cell proliferation incubated for 48 hrs; type: functional, cell-based
[7] = system: Mus musculus; assay: Antiinflammatory activity in male C57BL/6 mouse model of inflammatory bowel disease assessed as recovery of DSS-induced body weight loss at 40 mg/kg/day, po via gavage measured after 14 days relative to control; type: functional; settings: time 14 day
[8] = Selectivity ratio of CC50 for cytotoxicity against mouse Splenocyte to IC50 for immunosuppressive activity in mouse T-lymphocyte; type: toxicity; settings: splenocytes (CC50) and T-lymphocytes (IC50)
[9] = system: Mus musculus; assay: Antiinflammatory activity in DSS-induced male C57BL/6 mouse model of inflammatory bowel disease assessed as restoration of colon length at 40 mg/kg/day, po via gavage measured after 14 days relative to control; type: functional; settings: time 14 day
[10] = Toxicity in male C57BL/6 mouse assessed as effect on Cl inorganic salt index at 0.5 g/Kg administered daily and measured after 5 weeks; settings: in vivo, 500 mg/kg, 840 h
[11] = system: Mus musculus; assay: Antiinflammatory activity in DSS-induced male C57BL/6 mouse model assessed as inhibition of IL-17A level in colon at 50 to 100 microM/Kg; type: functional, organism-based; settings: dose 50-100 µM/Kg
[12] = system: Mus musculus; assay: Antiinflammatory activity in DSS-induced male C57BL/6 mouse model of inflammatory bowel disease assessed as downregulation of MyD88 expression at 50 to 100 microM/Kg by Western blot analysis; type: functional, organism-based; settings: dose 50-100 µM/Kg
[13] = system: Mus musculus; assay: Antiinflammatory activity in DSS-induced male C57BL/6 mouse model of inflammatory bowel disease assessed as amelioration of structural loss of colon at 50 to 100 microM/Kg by H and E staining based analysis; type: functional, organism-based; settings: dose 50-100 µM/Kg
[14] = system: Mus musculus; assay: Antiinflammatory activity in DSS-induced male C57BL/6 mouse model assessed as inhibition of TNF-alpha level in colon at 50 to 100 microM/Kg; type: functional, organism-based; settings: dose 50-100 µM/Kg
[15] = Toxicity in female BALB/c mouse assessed as effect on Cl inorganic salt index at 0.5 g/Kg administered daily and measured after 5 weeks; settings: in vivo, 500 mg/kg, 840 h
[16] = Toxicity in male C57BL/6 mouse assessed as effect on CK level at 0.5 g/Kg administered daily and measured after 5 weeks; settings: in vivo, 500 mg/kg, 840 h
[17] = Toxicity in male C57BL/6 mouse assessed as effect on GLU level at 0.5 g/Kg administered daily and measured after 5 weeks; settings: in vivo, 500 mg/kg, 840 h
[18] = system: Mus musculus; assay: Antiinflammatory activity in DSS-induced male C57BL/6 mouse model assessed as inhibition of IL-6 level in colon at 50 to 100 microM/Kg; type: functional, organism-based; settings: dose 50-100 µM/Kg
[19] = Toxicity in female BALB/c mouse assessed as effect on ALP level at 0.5 g/Kg administered daily and measured after 5 weeks; settings: in vivo, 500 mg/kg, 840 h
[20] = Toxicity in female BALB/c mouse assessed as effect on Na inorganic salt index at 0.5 g/Kg administered daily and measured after 5 weeks; settings: in vivo, 500 mg/kg, 840 h
[21] = Toxicity in female BALB/c mouse assessed as effect on GLU level at 0.5 g/Kg administered daily and measured after 5 weeks; settings: in vivo, 500 mg/kg, 840 h
[22] = Toxicity in female BALB/c mouse assessed as effect on CREA level at 0.5 g/Kg administered daily and measured after 5 weeks; settings: in vivo, 500 mg/kg, 840 h
[23] = system: Mus musculus; assay: Antiinflammatory activity in DSS-induced male C57BL/6 mouse model assessed as effect on JNK phosphorylation level at 50 to 100 microM/Kg by Western blot analysis; type: functional, organism-based; settings: dose 50-100 µM/Kg
[24] = Toxicity in male C57BL/6 mouse assessed as effect on CREA level at 0.5 g/Kg administered daily and measured after 5 weeks; settings: in vivo, 500 mg/kg, 840 h
[25] = Toxicity in female BALB/c mouse assessed as effect on CK level at 0.5 g/Kg administered daily and measured after 5 weeks; settings: in vivo, 500 mg/kg, 840 h
[26] = system: Mus musculus; assay: Antiinflammatory activity in DSS-induced male C57BL/6 mouse model assessed as inhibition of IL-22 level in colon at 50 to 100 microM/Kg; type: functional, organism-based; settings: dose 50-100 µM/Kg
[27] = Selectivity ratio of CC50 for cytotoxicity against mouse Splenocyte to IC50 for immunosuppressive activity in mouse B-lymphocyte; type: toxicity; settings: splenocytes (CC50) and B-lymphocytes (IC50)
[28] = Toxicity in male C57BL/6 mouse assessed as effect on Na inorganic salt index at 0.5 g/Kg administered daily and measured after 5 weeks; settings: in vivo, 500 mg/kg, 840 h
[29] = system: Mus musculus; assay: Antiinflammatory activity in DSS-induced male C57BL/6 mouse model of inflammatory bowel disease assessed as amelioration of crypts disruption at 50 to 100 microM/Kg by H and E staining based analysis; type: functional, organism-based; settings: dose 50-100 µM/Kg
[30] = system: Mus musculus; assay: Antiinflammatory activity in DSS-induced male C57BL/6 mouse model assessed as increase in IL-10 level in colon at 50 to 100 microM/Kg; type: functional, organism-based; settings: dose 50-100 µM/Kg
[31] = system: Mus musculus; assay: Antiinflammatory activity in DSS-induced male C57BL/6 mouse model of inflammatory bowel disease assessed as upregulation of ZO-1 expression in colon at 50 to 100 microM/Kg by immunohistochemical analysis; type: functional, organism-based; settings: dose 50-100 µM/Kg
[32] = system: Mus musculus; assay: Antiinflammatory activity in DSS-induced male C57BL/6 mouse model of inflammatory bowel disease assessed as decrease in p38 phosphorylation level at 50 to 100 microM/Kg by Western blot analysis; type: functional, organism-based; settings: dose 50-100 µM/Kg
[33] = system: Mus musculus; assay: Antiinflammatory activity in DSS-induced male C57BL/6 mouse model of inflammatory bowel disease assessed as amelioration of infiltration of inflammatory cells at 50 to 100 microM/Kg by H and E staining based analysis; type: functional, organism-based; settings: dose 50-100 µM/Kg
[34] = Toxicity in male C57BL/6 mouse assessed as effect on ALP level at 0.5 g/Kg administered daily and measured after 5 weeks; settings: in vivo, 500 mg/kg, 840 h
[35] = system: Mus musculus; assay: Antiinflammatory activity in DSS-induced male C57BL/6 mouse model of inflammatory bowel disease assessed as downregulation of TRAF6 expression at 50 to 100 microM/Kg by Western blot analysis; type: functional, organism-based; settings: dose 50-100 µM/Kg
[36] = system: Mus musculus; assay: Antiinflammatory activity in DSS-induced male C57BL/6 mouse model of inflammatory bowel disease assessed as inhibition of MPO expression at 50 to 100 microM/Kg, po by immunohistochemical analysis; type: functional, organism-based; settings: dose 50-100 µM/Kg

Compound CCOC(=O)OC[C@H]1O[C@@H](OC2=C(C)OC(=C(C)C)C2=O)[C@H](O)[C@@H](O)[C@@H]1O has an Activity [1] of 13.3%, a CC50 [2] of 182 µM and an Activity [3] of 47.6%. The Activity [4] was “Active”, the IC50 [5] was over 100 µM and the IC50 [6] was over 100 µM.

For CC(=O)OC[C@H]1O[C@@H](OC2=C(C)OC(=C(C)C)C2=O)[C@H](OC(C)=O)[C@@H](OC(C)=O)[C@H]1OC(C)=O, the CC50 [2] was 183 µM, the Activity [7] was 44.8% and the selectivity ratio [8] was 1.06. It also gave an Activity [9] of 25.4%, an IC50 [5] of over 100 µM and an IC50 [6] of 201 µM.

Work on COC(=O)[C@H]1O[C@@H](OC2=C(C)OC(=C(C)C)C2=O)[C@H](OC(C)=O)[C@@H](OC(C)=O)[C@@H]1OC(C)=O yielded a CC50 [2] of 212 µM, an Activity [7] of 44.8% and an Activity [9] of 9.5%. It also gave an IC50 [5] of over 100 µM and an IC50 [6] of over 100 µM.

In the case of CC(C)=C1OC(C)=C(O[C@@H]2O[C@H](COC(=O)C(C)(C)C)[C@@H](OC(=O)C(C)(C)C)[C@H](OC(=O)C(C)(C)C)[C@H]2OC(=O)C(C)(C)C)C1=O, the CC50 [2] is reported as over 200 µM, the Activity [7] is reported as 41.6% and the Activity [9] is reported as 3.2%. The IC50 [5] was over 100 µM and the IC50 [6] was over 100 µM.

For CC(C)=C1OC(C)=C(O)C1=O, the Activity [10] was “Non-toxic”, the Activity [11] was “Active” and the Activity [12] was “Active”. For the same compound, the Activity [13] was “Active”, the Activity [14] was “Active” and the Activity [15] was “Non-toxic”. For the same compound, the Activity [16] was “Non-toxic”, the Activity [17] was “Non-toxic” and the Activity [18] was “Active”. For the same compound, the CC50 [2] was 110 µM, the Activity [19] was “Non-toxic” and the Activity [20] was “Non-toxic”. The Activity [21] was “Non-toxic”, the Activity [22] was “Non-toxic” and the Activity [23] was “inactive”. The Activity [24] was “Non-toxic”, the Activity [25] was “Non-toxic” and the Activity [26] was “Active”. For the same compound, the selectivity ratio [27] was 4.77, the Activity [28] was “Non-toxic” and the Activity [29] was “Active”. The Activity [30] was “Active”, the Activity [31] was “Active” and the selectivity ratio [8] was 1.82. The Activity [32] was “Active”, the Activity [33] was “Active” and the IC50 [5] was 23.1 µM. The Activity [34] was “Non-toxic”, the Activity [35] was “Active” and the IC50 [6] was 62.1 µM. The Activity [36] was “Active”.

With CC1=C(O)C(=O)C(=C2CCCCC2)O1 the IC50 [5] was over 100 µM and the IC50 [6] was over 100 µM.

CC(=O)OC[C@H]1O[C@@H](OC2=C(C)OC(=C3CCCCC3)C2=O)[C@H](OC(C)=O)[C@@H](OC(C)=O)[C@@H]1OC(C)=O showed an Activity [1] of 54.8%, a CC50 [2] of 35.6 µM and an Activity [3] of 30.7%. For the same compound, the Activity [4] was “Active”, the selectivity ratio [27] was 0.79 and the selectivity ratio [8] was 0.92. It also gave an IC50 [5] of 54 µM and an IC50 [6] of 4720 µM.

Work on CC1=C(O)C(=O)C(=C2CCOCC2)O1 yielded a CC50 [2] of 232 µM, an IC50 [5] of over 100 µM and an IC50 [6] of over 100 µM.
